“Also recorded” adds a separate entry of the source.
How the values were obtained:
aortic allografts [1] = experiment: Immunohistology of aortic grafts: infiltrating leukocytes and VSMCs; format: in vivo, rat; set-up: key: −: not present; +: low; ++: moderate; +++: frequent; settings: day 30
Description: (§1) Immunohistological analysis. Immunohistology was performed on cryostat sections as previously described in detail. Guillot et al., J. Immunol. 164:5258-68 (2000). Immunohistological analysis of infiltrating leukocytes was performed at day 30 after transplantation using the following mouse Mab: a mixture of two anti-leukocyte CD45 Mabs (OX1 AND OX30), anti-monocyte/macrophage CD68 (ED1), anti-αβ TCR (R.7.3), anti-CD4 (W3/25), anti-CD8 α chain (OX8), anti-monomorphic class II MHC antigens (OX6), anti-CD25 (OX39) (all from ECACC, Wiltshire, UK), anti-CD54 (ICAM-1) (Seikagaku America Inc., Rockville, Mass.), anti-CD86 (B7.2) (Pharmingen, Franklin Lakes, N.J.) and an irrelevant mouse Mab (3G8, anti-human CD16). VSMCs were detected using a mouse anti-α human smooth muscle actin Mab (Sigma, St. Louis, Mo.). Slides were then incubated with a biotin-conjugated anti-mouse immunoglobulin antibody (Vector Laboratories, Burlingame, Calif.), followed by HRP-conjugated streptavidin (Vector Laboratories) and VIP substrate. IFNγ expression was analyzed using a hamster Mab (Genzyme, Cambridge, Mass.). The IP10 chemiokine was detected using a goat anti-IP10 antibody (Santa Cruz, Santa Cruz, Calif.). Rabbit antibodies were used to detect iNOS (Transduction Laboratories, Lexington, Ky.), HO-1 (Stressgen) and TGFβ1 (Promega, Madison, Wis.). Biotin-conjugated anti-hamster, anti-goat and anti-rabbit antibodies were from Jackson Immunoresearch. Binding of these antibodies was detected by incubation with HRP-conjugated streptavidin and VIP substrate. Tissue sections were counterstained with hematoxylin and lithium carbonate.

aortic allografts [2] = experiment: Immunohistology of aortic grafts: activation markers and cytokines; format: in vivo, rat; set-up: key: −: not present; +: low; ++: moderate; +++: frequent
Description: as §1

[3] = test system: LEW rats transplanted with DA livers; experiment: Allogeneic orthotopic liver transplant (OLT) model: survival, histology, sGOT; format: in vivo, rat
Description: Ad-HO-1 transduction in OLT model. Male Dark-Agouti (DA; RT1^3) and Lewis (LEW; RT1′) rats of 10-16 weeks of age were purchased from Harlan Sprague Dawley, Inc. (San Diego, Calif.), and maintained under conditions approved by the UCLA Chancellor's Animal Research Committee (CARC). All animals were housed in microisolator cages in a virus free facility and fed laboratory chow ad libitum. Orthotopic liver transplants were performed between DA donors and LEW rat recipients, as described previously. Amersi et al., supra; Kato et al., Am. J. Transplant 1:121-28 (2001). Ex-vivo gene transfer into liver grafts was performed during cold preservation (4° C.) via perfusion of the portal vein with 2 ml of cold lactated Ringer's solution containing 5×10^10 pfu (plaque-forming unit) of Ad-HO-1. Control grafts were perfused with 5×10^10 pfu of Ad-β-gal. Animals were followed for survival. Separate groups of recipients were sacrificed at day 3, 7 and 10 post-transplant, OLTs were harvested for histological evaluation, whereas blood samples were collected for measurement of sGOT levels.
Methylene chloride treatment in OLT model To investigate whether CO represents a functional downstream HO-1 mediator in this system, methylene chloride was used as a carbon monoxide generator. As indicated above, the metabolism of MC is known to result in the exclusive production of CO2 and CO. Gargas et al., supra. LEW rats transplanted with DA livers were fed with methylene chloride (500 mg/kg) 2 hr prior to the transplant, followed by a 2-week post-transplant course (500 mg/kg/day). The blood CoHb levels in experimental animals were measured at day 0, 5, and 10. Animal survival was screened and OLTs were analyzed histologically.
Histology. Liver allografts were harvested at day 3, 7 and 10 post-transplant. The tissue was sliced into small pieces, preserved in 10% neutral-buffered formalin, cut into 5-μm section, and stained with hematoxylin and eosin (H&E) by standard methods.

[4] = test system: Louvain rats immunized with collagen type II; experiment: Rat collagen-arthritis model; format: in vivo; set-up: arthritic score / Arthritis Score / X-Ray Score: scale not given here
Description: To assess the therapeutic potential of methylene chloride as a carbon-monoxide generating compound in this disease model, female Louvain rats weighing between 120 and 150 g were injected intradermally with 0.5 mg native chicken collagen type II solubilized in 0.1M acetic acid and emulsified in incomplete Freund's adjuvant. At the onset of disease (around day 10) animals were divided into three groups. One group was treated daily with vehicle, the second and third groups with 100 mg/kg/day and 500 mg/kg/day methylene chloride (p.o.). Severity of disease was evaluated daily using a quantification method based on standardized levels of swelling and periarticular erythema. Animals were sacrificed on day 28. […] Compared to control animals these differences were statistically significant (p<0.02).
Iodoform and bromoform were compared with methylene chloride as alternative carbon monoxide generating compounds, using the rat collagen arthritis model described in Example 6 above. Briefly, arthritis was induced in a Lovain strain of rats by immunizing the animals with Collagen Type II in Incomplete Freund's Adjuvant. Digitized radiographs were obtained at the completion of the study on day 28. Pharmacokinetics were also determined and the synovial tissue from the inflamed joints of the treated animals was harvested on Day 16 or Day 28 post-immunization. Disease systems were generally evident by Day 10.

Compound: [C-]#[O+] [CO, carbon monoxide]
- CD4 (aortic allografts [1]; adventitia): ++
- CD8 (aortic allografts [1]; adventitia): +
- CD45 (leukocytes) (aortic allografts [1]; adventitia): +++
- CD68 (macrophages) (aortic allografts [1]; adventitia): +++
- TCRαβ (T cells) (aortic allografts [1]; adventitia): +
- VSMCs (aortic allografts [1]; adventitia): −
- CD4 (aortic allografts [1]; intima): +
- CD8 (aortic allografts [1]; intima): +
- CD45 (leukocytes) (aortic allografts [1]; intima): ++
- CD68 (macrophages) (aortic allografts [1]; intima): ++
- TCRαβ (T cells) (aortic allografts [1]; intima): −
- VSMCs (aortic allografts [1]; intima): −
- CD4 (aortic allografts [1]; media): −
- CD8 (aortic allografts [1]; media): −
- CD45 (leukocytes) (aortic allografts [1]; media): −
- CD68 (macrophages) (aortic allografts [1]; media): −
- TCRαβ (T cells) (aortic allografts [1]; media): −
- VSMCs (aortic allografts [1]; media): +++
- CD54 (ICAM-1) (aortic allografts [2]; adventitia): +++
- CD86 (B7.2) (aortic allografts [2]; adventitia): +
- INOS (aortic allografts [2]; adventitia): +++
- IP10 (aortic allografts [2]; adventitia): +
- MHC-II (aortic allografts [2]; adventitia): ++
- TGFβ (aortic allografts [2]; adventitia): ++
- CD54 (ICAM-1) (aortic allografts [2]; intima): ++
- CD86 (B7.2) (aortic allografts [2]; intima): +
- INOS (aortic allografts [2]; intima): ++
- IP10 (aortic allografts [2]; intima): +
- MHC-II (aortic allografts [2]; intima): ++
- TGFβ (aortic allografts [2]; intima): +
- CD54 (ICAM-1) (aortic allografts [2]; media): −
- CD86 (B7.2) (aortic allografts [2]; media): −
- INOS (aortic allografts [2]; media): ++
- IP10 (aortic allografts [2]; media): +
- MHC-II (aortic allografts [2]; media): −
- TGFβ (aortic allografts [2]; media): +

Compound: ClCCl [methylene chloride]
- hepatic parenchyma viable / preserved ([3]; OLT by day 10 post-transplant): more than 80%
- histological grade of rejection ([3]; OLT by day 10 post-transplant): mild to moderate rejection
- recipients/livers surviving >120 days ([3]; allogeneic OLT): two out of seven
- mean survival time [MST]±SD ([3]; allogeneic OLT, vectors 5×10^10 pfu ex vivo perfusion, methylene chloride 500 mg/kg/day × 14 days): > 47 ± 46 days
- rat recipients surviving >3 weeks ([3]; daily feedings with methylene chloride alone): ca. 50%
- tolerability of regimen ([3]; methylene chloride 500 mg/kg/day × 14 days, OLT recipients): well tolerated and no side effects were noted; also recorded: well tolerated
- Mean (days) recipient survival ([3]; treatment protocol as in Table 1): >47 days
- X-ray score (bone erosion) ([4]; methylene chloride 100 mg/kg/day): 2.7+/−0.8
- arthritic score (mean+/−standard error) ([4]; methylene chloride 100 mg/kg/day p.o., end of study (day 28)): 3.8+/−1.0
- X-ray score (bone erosion) ([4]; methylene chloride 500 mg/kg/day): 1.8+/−0.7
- arthritic score ([4]; methylene chloride 500 mg/kg/day p.o., end of study (day 28)): 2.75

— patent publication US20040143025A1, “Carbon monoxide generating compunds for treatment of vascular, inflammatory and immune disorders” (priority 2002, published 2004)
